Measurements from patent US20040241755A1, “Human cell assay to determine effect of sample compounds on Col2 enhancer expression” (Pfizer Inc., priority 2003, published 2004).

Columns and labels:
Assay type in all cases: cell-based, human
48 bp Col2a1 enhancer = 48 bp Col2a1 enhancer luciferase reporter transfection assay in SW1353 cells; conditions: for reduction of enhancer driven luciferase expression: 10 ng/ml; for effect on Sox9 activity / responsiveness of SW1353 cells transfected with the 48 bp Col2a1 enhancer: concentration not given, data not shown; for relief of cytokine mediated inhibition of enhancer expression by co-treatment: co-treatment with TNFα or IL-1β, SW1353 cells
Method: Reagents were obtained from Invitrogen unless otherwise noted. SW1353 human chondrosarcoma cells (ATCC #HTB-94) were grown in DMEM 10% FBS 10 ug/ml Gentamicin and passaged (2 times a week) using with 0.25% Trypsin-EDTA.
Cells were plated at ˜10^6 cells per flask into a T-75 in 10 ml growth media or an equivalent based on culture vessel surface area, 24 hours prior to transfection. For each transfection, 24 ul of Transit (PanVera) was diluted into 250 ul OptiMEM and 12 ug of reporter plasmid Col2a1 enhancer construct (48 bp Col2a1, was added. After 15-30 minute incubation, growth media was removed from the cells, and the DNA-transfection reagent complexes diluted to a final volume of 10 ml with OptiMEM and added to the cells. Transfection media was replaced with fresh media after 7 hours. 24 hours post transfection the cells were treated with media alone or indicated factors. Cells were harvested 48 hours post-transfection and luciferase activity measured using the LucLite and the TopCount LSC plate reader (Packard).
We analyzed the activity of the 48 bp Col2a1 enhancer construct (48 bp Col2a1) in transfected SW1353 cells. SW1353 cells were transfected with a constant amount of reporter (0.25 ug), with or without increasing amounts of the Sox9 expression construct or empty vector.

matrix metalloproteases = test: Stimulation of matrix metalloprotease expression in SW1353 cells; conditions: data not shown
Sox9 mRNA = Sox9 mRNA expression in SW1353 cells by real time quantitative PCR (TaqMan); conditions: 48 hours, relative to GAPDH
Method: RNA was prepared from 75 cm dishes using RNeasy Kits with DNAse treatment (Qiagen) according to the manufacturer's protocol except a second application of DNase was used. cDNA was prepared from 10-20 ul of RNA (1-4 ug) using random hexamer primers and PE Biosystems Reverse Transcription reagents. Taqman reactions used 8 ul cDNA and 2× PE Universal PCR Master Mix (PE Biosystems), 900 nM PCR primers and 200 nM FAM-TAMRA probe. Reactions (50 ul) were cycled and quantified using the PE 5700 with standard conditions for 45 cycles. The data was analyzed using GeneAmp5700 software Mix (PE Biosystems), adjusting the threshold to linear range for all samples. The ΔCt is calculated by subtracting normalizer (GAPDH) from corresponding gene-specific values. The ΔΔCt is calculated by subtracting treated ΔCt from control ΔCt. Fold induction is determined by calculating 2^ΔΔCt. Data is reported as % increase over control sample.
The effect of chondrocyte growth factors as well as inhibitory cytokines on the expression of Sox9 RNA in SW1353 cells using real time quantitative PCR (TaqMan, P E Applied Biosystems) was determined. Cells were cultured and treated with growth factors or cytokines as described above. After 48 hours cells were harvested and RNA prepared. A custom Sox9 primer probe set was validated by an efficiency plot over several logs and relative Sox 9 expression was quantified relative to GAPDH.

IL-8 = test: Induction of IL-8 expression in SW1353 cells; conditions: for stimulation of expression of IL-8: 10 ng/ml
Method: SW1353 cells were transfected with the 48 bp Col2a1 reporter and then treated with vehicle, TNFα (10 ng/ml) or IL-1β (10 ng/ml) (FIG. 2A).
The effect of increasing IL-1β doses on the two response was determined. […] Therefore, SW1353 cells appear to respond to a dynamic range of IL-1β levels with selective functional responses, making them potentially useful in models of both osteoarthritis and rheumatoid diseases.

IL-1β: pro-inflammatory cytokine was tested, and the “reduction of enhancer driven luciferase expression” value (48 bp Col2a1 enhancer; transfected SW1353 cells) was roughly 50%, the “stimulation of Col2 enhancer activity at very low levels” value (48 bp Col2a1 enhancer; 0.1-1 pg/ml, transfected SW1353 cells) was “about 150%” and the “concentration giving maximal inhibition (repression) of Col2 enhancer activity” value (48 bp Col2a1 enhancer; transfected SW1353 cells) was 20 pg/mL. For the same molecule, the “stimulation of expression of matrix metalloproteases” value (matrix metalloproteases) was “stimulate”, the “decrease in Sox9 expression” value (Sox9 mRNA) was 60% and the “stimulation of expression of IL-8” value (IL-8) was “stimulate”. The “induction of IL-8” value (IL-8; IL-1 concentrations below 20 pg/ml) was “not detected”.

“TGFα: growth factor to which SW1353 cells appear unresponsive” was tested, and the “effect on Sox9 activity / responsiveness of SW1353 cells transfected with the 48 bp Col2a1 enhancer” value (shortened to “effect on Sox9 activity / responsiveness”) (48 bp Col2a1 enhancer) was “unresponsive”.

For “PTHrP: parathyroid hormone-related peptide”, the “effect on Sox9 activity / responsiveness” value (48 bp Col2a1 enhancer) was “not seen an effect”.

For TNFα, the “reduction of enhancer driven luciferase expression” value (48 bp Col2a1 enhancer; transfected SW1353 cells) was “approximately 60%”, the “stimulation of expression of matrix metalloproteases” value (matrix metalloproteases) was “stimulate” and the “decrease in Sox9 expression” value (Sox9 mRNA) was 45%. The “stimulation of expression of IL-8” value (IL-8) was “stimulate”.

In the case of “FGF-1: pro-chondrogenic fibroblast growth factor”, the “relief of cytokine mediated inhibition of enhancer expression by co-treatment” value (48 bp Col2a1 enhancer) is reported as “partially relieved” and the “increase in expression of Sox9 mRNA” value (Sox9 mRNA) is reported as roughly 2 fold.

With “FGF-2: pro-chondrogenic fibroblast growth factor” the “relief of cytokine mediated inhibition of enhancer expression by co-treatment” value (48 bp Col2a1 enhancer) was “partially relieved” and the “increase in expression of Sox9 mRNA” value (Sox9 mRNA) was “approximately 1.5 fold”.

B1: BMP-4: BMP growth factor (protein, UniProt P12644 293-408, looked up)
Bone morphogenetic protein 4: SPKHHSQRARKKNKNCRRHSLYVDFSDVGWNDWIVAPPGYQAFYCHGDCPFPLADHLNSTNHAIVQTLVNSVNSSIPKACCVPTELSAISMLYLDEYDKVVLKNYQEMVVEGCGCR
With B1 the “effect on Sox9 activity / responsiveness” value (48 bp Col2a1 enhancer) was “unresponsive”.

B2: BMP-6: BMP growth factor (protein, UniProt P22004 375-513, looked up)
Bone morphogenetic protein 6: SASSRRRQQSRNRSTQSQDVARVSSASDYNSSELKTACRKHELYVSFQDLGWQDWIIAPKGYAANYCDGECSFPLNAHMNATNHAIVQTLVHLMNPEYVPKPCCAPTKLNAISVLYFDDNSNVILKKYRNMVVRACGCH
B2 was tested, and the “effect on Sox9 activity / responsiveness” value (48 bp Col2a1 enhancer) was “unresponsive”.

B3: FGF-7: fibroblast growth factor which signals exclusively through the epithelial-cell restricted FGFRIIIb receptor (protein, UniProt P21781 32-194, looked up)
Fibroblast growth factor 7: CNDMTPEQMATNVNCSSPERHTRSYDYMEGGDIRVRRLFCRTQWYLRIDKRGKVKGTQEMKNNYNIMEIRTVAVGIVAIKGVESEFYLAMNKEGKLYAKKECNEDCNFKELILENHYNTYASAKWTHNGGEMFVALNQKGIPVRGKKTKKEQKTAHFLPMAIT
With B3 the “increase in expression of the 48 bp Col2a1 enhancer” value (48 bp Col2a1 enhancer; 200 ng/ml added to transfected SW1353 cultures) was “no effect”.
